pEC50: −log10 of the molar value.
molecular target: T1, human recombinant mGluR5 (Homo sapiens, UniProt P41594); assay: positive modulation of mGluR5, calcium based FLIPR assay; conditions: HEK 293 cell line expressing human recombinant mGluR5; EC50 of the modulation from peak Ca fluorescence signal after glutamate at approx. 5% basal stimulation
T1 construct: expressed in transfected cells; host or cells: HEK 293
Protocol: The positive modulation of mGluR5 is measured in a HEK 293 cell line expressing human recombinant mGluR5 and is detected with calcium based FLIPR assay. The cells are cultured with DMEM supplemented with 10% FCS, 2 μg/mL tetracycline, 100 μg/mL hygromycin and 500 μg/mL geneticin. The cell culture media is exchanged for tetracycline-free cell culture media 3-7 days before the assay. One day before the assay the cell culture medium is exchanged to DMEM without glutamine and phenol red and supplemented with 10% FCS, 100 μg/mL hygromycin and 500 μg/mL geneticin. On the assay day, the medium of the subconfluent cultures is removed and the cells are detached by addition of 2.5 ml EDTA (0.02%) per 175 cm2 culture flask for 1 minute. The cells are resuspend in Ringer solution (140 mM NaCl, 5 mM KCl, 2.5 mM CaCl2, 1.5 mM MgCl2, 5 mM Glucose, 10 mM Hepes; adjusted to pH 7.4 with NaOH), pooled and Ringer solution added to adjust the volume to 50 mL. The cell suspension is centrifuged for […] at 1500 U/min (425 g). The supernatant is removed and the cells washed a second time with 50 ml fresh Ringer solution and centrifuged again as before. The supernatant is again removed and the pellet resuspended in Ringer solution to 1,000,000 cells/ml (1×10^6 cells/mL). The cells are plated onto BD BioCoat Poly-D-Lysine 384 well plates (20.000 cells/well; 20 μl/well). The lid covered plates are then incubated until use at 37° C./10% CO2. For dye loading, 20 μl of Calcium-4 assay kit solution (prepared according to the manufacturer's description in Ringer solution) are added to the cells and the plates are incubated for […] 37° C. and then […] at room temperature.
Controls, Compound Dilution and Assay Execution:
Each assay plate contained wells with “high” and “low” controls:
Low controls 1% DMSO/ringer solution+basal glutamate activation (defined as 100% CTL).
High controls 10 μM CDPPB+basal glutamate activation (defined as 200% CTL).
Test compounds are dissolved and diluted in DMSO to 100-fold the desired concentrations. In a second step, the compounds are diluted in Ringer solution such that the compounds are 4-fold more concentrated than the desired final assay concentration. The final DMSO concentration was 1%.
20 μl of each compound solution are then transferred to the assay plate and the Ca2+ kinetic is measured to determine any intrinsic compound activity. After 5 mM incubation in the FLIPR device, the second stimulation with 20 μl of glutamate in Ringer solution (glutamate concentration adjusted to approximately 5% basal stimulation of the maximal possible glutamate effect) is added and the kinetic Ca2+ response of the wells was measured for the modulation effect.
The peak height of the Ca release related fluorescence signal (9-66) is used for the EC50. The EC50 of the modulation is calculated over a nonlinear regression with GraphPad Prism (Table 1).

T1 sequence (P41594 21-1212): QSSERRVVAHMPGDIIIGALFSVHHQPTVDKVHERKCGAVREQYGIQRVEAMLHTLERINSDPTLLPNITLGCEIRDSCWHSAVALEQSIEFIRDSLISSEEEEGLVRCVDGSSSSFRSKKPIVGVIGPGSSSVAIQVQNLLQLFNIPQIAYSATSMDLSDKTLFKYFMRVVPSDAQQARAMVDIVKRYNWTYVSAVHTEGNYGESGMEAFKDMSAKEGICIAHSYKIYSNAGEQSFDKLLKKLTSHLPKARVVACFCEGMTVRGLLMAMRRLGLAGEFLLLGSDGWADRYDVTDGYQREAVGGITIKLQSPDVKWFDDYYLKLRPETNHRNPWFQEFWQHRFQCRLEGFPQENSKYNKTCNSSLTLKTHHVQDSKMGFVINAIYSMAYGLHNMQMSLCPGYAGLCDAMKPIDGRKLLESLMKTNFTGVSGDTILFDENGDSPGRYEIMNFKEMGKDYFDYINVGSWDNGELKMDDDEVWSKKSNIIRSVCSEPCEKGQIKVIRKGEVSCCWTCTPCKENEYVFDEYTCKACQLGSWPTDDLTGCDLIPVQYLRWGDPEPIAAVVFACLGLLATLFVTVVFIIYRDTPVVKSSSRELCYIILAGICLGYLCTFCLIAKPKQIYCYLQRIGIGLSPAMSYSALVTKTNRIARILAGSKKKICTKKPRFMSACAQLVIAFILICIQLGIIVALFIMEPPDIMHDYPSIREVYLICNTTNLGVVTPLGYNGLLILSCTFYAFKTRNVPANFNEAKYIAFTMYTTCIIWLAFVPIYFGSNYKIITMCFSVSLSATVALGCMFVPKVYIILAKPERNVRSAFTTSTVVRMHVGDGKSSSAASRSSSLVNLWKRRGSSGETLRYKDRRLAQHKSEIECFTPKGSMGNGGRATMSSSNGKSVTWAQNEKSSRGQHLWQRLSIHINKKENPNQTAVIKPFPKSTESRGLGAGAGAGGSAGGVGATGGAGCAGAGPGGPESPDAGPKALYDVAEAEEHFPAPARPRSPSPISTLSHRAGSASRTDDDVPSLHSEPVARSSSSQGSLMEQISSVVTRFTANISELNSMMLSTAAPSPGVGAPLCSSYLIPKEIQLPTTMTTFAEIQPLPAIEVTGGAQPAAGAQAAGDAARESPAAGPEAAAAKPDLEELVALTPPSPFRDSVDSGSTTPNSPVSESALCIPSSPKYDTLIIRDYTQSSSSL

Row | SMILES | pEC50
1 | O=C(Cn1nc(-c2ccccc2)cc1-c1ccccc1)N1CCN(c2nnc(C(F)(F)F)s2)CC1 [Example 7.01.037] | 6.73
2 | CCc1cc(-c2ccc(F)c(C)c2)nn1CC(=O)N1CC=C(c2cccc(OC)c2)CC1 [Example 7.02.137] | 6.45
3 | CCc1cc(-c2ccc(F)c(C)c2)nn1CC(=O)N1CCC(c2cccc(OC)c2)CC1 [Example 7.02.147] | 6.24
4 | COc1cc(-c2cc(-c3ccccc3)n(CC(=O)N3CCC(c4nnc(C)o4)CC3)n2)ccc1F [Example 7.02.151] | 6.68
5 | CCc1cc(-c2ccc(F)c(C)c2)nn1CC(=O)N1CCc2nc(N)sc2C1 [Example 7.01.068] | 6.63
6 | CCCc1cc(-c2ccc(F)c(C)n2)nn1CC(=O)N1CCc2nc(C)sc2CC1 [Example 7.02.247] | 6.76
7 | Cc1nc2c(o1)CN(C(=O)Cn1nc(-c3cc(C)c(F)cn3)cc1-c1ccccc1)C2 [Example 7.02.177] | 6.95
8 | CNc1nc2c(s1)CCN(C(=O)Cn1nc(-c3ccc(F)c(C)c3)cc1C1CCCCC1)CC2 [Example 7.02.049] | 6.80
9 | Nc1nnc(C2CCN(C(=O)Cn3nc(-c4ccccc4)cc3-c3ccccc3)CC2)o1 [Example 7.01.033] | 5.82
10 | Cc1cnc(C2CCN(C(=O)Cn3nc(-c4cccc(Cl)c4)cc3-c3ccccc3)CC2)o1 [Example 7.02.144] | 7.17
11 | COc1cc(-c2cc(C(C)C)n(CC(=O)N3CCc4nc(N)sc4CC3)n2)ccc1F [Example 7.02.062] | 6.49
12 | COc1ccc2c(c1)CN(C(=O)Cn1nc(-c3ccccc3)cc1-c1ccccc1)CC2 [Example 7.01.007] | 5.81
13 | COCc1cc(-c2ccc(F)c(C)c2)nn1CC(=O)N1CCc2nc(C)oc2C1 [Example 7.01.057] | 6.13
14 | COc1ccc2c(c1)CCN(C(=O)Cn1nc(-c3ccccc3)cc1-c1ccccc1)CC2 [Example 7.01.008] | 5.93
15 | Cc1ccc(-c2cc(-c3ccccc3)n(CC(=O)N3Cc4nc(C)sc4C3)n2)nc1 [Example 7.02.118] | 6.90
16 | CCc1cc(-c2ccc(F)c(C)c2)nn1CC(=O)N1Cc2cccnc2C1 [Example 7.02.230] | 6.06
17 | Cc1nc2c(o1)CN(C(=O)Cn1nc(-c3ccc(F)c(C)c3)cc1C)C2 [Example 7.02.155] | 7.04
18 | Nc1ccc2c(c1)CCN(C(=O)Cn1nc(-c3ccccc3)cc1-c1ccccc1)CC2 [Example 7.01.036] | 5.88
19 | O=C(Cn1nc(-c2ccccc2)cc1-c1ccccc1)N1CCC(c2ncc(Cl)cn2)CC1 [Example 7.01.001, 2-(3,5-diphenyl-pyrazol-1-yl)-1-(4-(5-chloro-pyrimidin-2-yl)-1-piperidinyl)-ethanon] | 5.84
20 | CC(=O)Nc1ccc2c(c1)CCN(C(=O)Cn1nc(-c3ccc(F)c(C)c3)cc1-c1ccccc1)CC2 [Example 7.01.097] | 6.96
21 | Cc1nc2c(s1)CCN(C(=O)Cn1nc(-c3ccc(F)cn3)cc1-c1ccccc1)CC2 [Example 7.02.056] | 6.61
22 | COCCCc1cc(-c2ccc(F)c(C)c2)nn1CC(=O)N1Cc2nc(C)sc2C1 [Example 7.02.105] | 6.62
23 | CCCc1cc(-c2ccc(F)c(C)c2)nn1CC(=O)N1CCN(c2nc(C)co2)CC1 [Example 7.02.166] | 6.83
24 | O=C(Cn1nc(-c2ccccc2)cc1-c1ccccc1)N1CCN(c2ccccc2F)C(=O)C1 [Example 7.01.014] | 6.33
25 | Cc1cc(-c2cc(-c3ccccc3)n(CC(=O)N3CCc4ncccc4C3)n2)ccc1F [Example 7.01.078] | 7.11
26 | CC(C)c1cc(-c2ccc(F)cc2)nn1CC(=O)N1CCc2nc(N)sc2CC1 [Example 7.02.073] | 6.20
27 | CCc1cc(-c2cccc(C#N)c2)nn1CC(=O)N1Cc2nc(C)sc2C1 [Example 7.02.186] | 6.49
28 | Cc1cc(-c2cc(C(C)C)n(CC(=O)N3CCc4nc(N)sc4CC3)n2)ccc1F [Example 7.02.054] | 6.73

The next lines start with the values.

Row | pEC50 | SMILES
29 | 7.96 | Cc1cnc(N2CCN(C(=O)Cn3nc(-c4ccc(OC(F)F)cc4)cc3-c3ccccc3)CC2)o1 [Example 7.02.226]
30 | 7.64 | Cc1nc2c(s1)CN(C(=O)Cn1nc(-c3ccc(OC(F)F)cc3)cc1-c1ccccc1)C2 [Example 7.02.222]
31 | 8.10 | Cc1nc2c(o1)CN(C(=O)Cn1nc(-c3ccc(F)c(C)c3)cc1-c1ccccc1)CC2 [Example 7.02.097]
32 | 7.19 | CCc1cc(-c2cccc(C#N)c2)nn1CC(=O)N1CC=C(c2ncc(C)o2)CC1 [Example 7.02.182]
33 | 7.40 | O=C(Cn1nc(-c2ccccc2)cc1-c1ccccc1)N1CCN(c2nccs2)CC1 [Example 7.01.043]
34 | 7.89 | Cc1nc2c(o1)CN(C(=O)Cn1nc(-c3ccc(OC(F)F)cc3)cc1-c1ccccc1)C2 [Example 7.02.223]
35 | 7.38 | COc1cc(-c2cc(-c3ccccc3)n(CC(=O)N3CCc4nc(N)sc4CC3)n2)ccc1F [Example 7.02.149]
36 | 7.17 | Cc1cc(-c2cc(-c3ccccc3)n(CC(=O)N3CCC(c4nnc(C(C)C)o4)CC3)n2)ccc1F [Example 7.02.017]
37 | 7.44 | Cc1nnc(C2CCN(C(=O)Cn3nc(-c4ccc(F)c(C)c4)cc3-c3ccccc3)CC2)o1 [Example 7.02.019]
38 | 7.51 | Cc1cc(-c2cc(-c3ccccc3)n(CC(=O)N3CCc4cn[nH]c4CC3)n2)ccc1F [Example 7.01.052]
39 | 8.70 | Cc1nc(N2CCN(C(=O)Cn3nc(-c4ccc(F)c(C)c4)cc3-c3ccccc3)CC2)no1 [Example 7.02.195]
40 | 7.47 | COCCCc1cc(-c2ccc(F)c(C)c2)nn1CC(=O)N1CCc2nc(C)sc2CC1 [Example 7.02.103]
41 | 7.82 | Cc1nc2c(s1)CCN(C(=O)Cn1nc(-c3cccc(Cl)c3)cc1-c1ccccc1)CC2 [Example 7.02.145]
42 | 7.28 | COCc1cc(-c2ccc(F)c(C)c2)nn1CC(=O)N1CCc2nc(C)sc2CC1 [Example 7.01.055]
43 | 7.18 | Cc1cc(-c2cc(-c3ccccc3)n(CC(=O)N3CCc4cc(-c5ccccc5)nnc4CC3)n2)ccc1F [Example 7.01.082]
44 | 7.92 | Cc1cnc(C2CCN(C(=O)Cn3nc(-c4ccc(F)c(C)c4)cc3-c3ccccc3)CC2)o1 [Example 7.02.098]
45 | 7.68 | Cc1cc(-c2cc(-c3ccccc3)n(CC(=O)N3CC=C(c4ncccn4)CC3)n2)ccc1F [Example 7.02.014]
46 | 7.68 | Cc1cc(-c2cc(CC(C)C)n(CC(=O)N3CCc4nc(N)sc4CC3)n2)ccc1F [Example 7.02.120]
47 | 7.43 | Cc1nc2c(s1)CN(C(=O)Cn1nc(-c3ccc(F)cc3)cc1-c1ccc(F)cc1)C2 [Example 7.02.011]
48 | 7.72 | Cc1nc2n(n1)CCN(C(=O)Cn1nc(-c3ccc(F)c(C)c3)cc1-c1ccccc1)CC2 [Example 7.02.231]
49 | 7.54 | COC(=O)c1ccc2c(c1)CCN(C(=O)Cn1nc(-c3ccc(F)c(C)c3)cc1-c1ccccc1)CC2 [Example 7.01.088]
50 | 7.17 | COc1cc(-c2cc(-c3ccccc3)n(CC(=O)N3CCC(c4ncc(C)o4)CC3)n2)ccc1F [Example 7.02.152]
51 | 7.32 | Cc1nc2c(o1)CN(C(=O)Cn1nc(-c3ccc(OC(F)F)cn3)cc1-c1ccccc1)C2 [Example 7.02.244]
52 | 7.52 | Cc1cc(-c2cc(-c3ccccc3)n(CC(=O)N3CCc4cc(=O)n(C)nc4CC3)n2)ccc1F [Example 7.01.081]
53 | 7.52 | Cc1nc(N2CCN(C(=O)Cn3nc(-c4ccc(OC(F)F)cn4)cc3-c3ccccc3)CC2)no1 [Example 7.02.235]

From patent US8741892B2, “Compounds” (Boehringer Ingelheim International GmbH, priority 2011, dated 2014)
